From patent publication US20250123280A1, “LABEL-FREE DETECTION OF PROTEASE ACTIVITY” (OREGON HEALTH & SCIENCE UNIVERSITY, priority 2021, published 2025)
Where “and” joins values, the source holds several entries; their conditions need not be identical. Identical values can stand only once. Peptide text beside a SMILES is read from it. * marks the point of attachment. Fmoc = O=C(OCC1c2ccccc2-c2ccccc21)*

Tests used:
[1] = target: T1, legumain (Mus musculus, UniProt O89017); experiment: Legumain assay with peptide 1 and Thioflavin T in buffer; format: biochemical
T1 construct: purchased Novus Biologicals
T1 sequence (O89017 18-325 limits assumed): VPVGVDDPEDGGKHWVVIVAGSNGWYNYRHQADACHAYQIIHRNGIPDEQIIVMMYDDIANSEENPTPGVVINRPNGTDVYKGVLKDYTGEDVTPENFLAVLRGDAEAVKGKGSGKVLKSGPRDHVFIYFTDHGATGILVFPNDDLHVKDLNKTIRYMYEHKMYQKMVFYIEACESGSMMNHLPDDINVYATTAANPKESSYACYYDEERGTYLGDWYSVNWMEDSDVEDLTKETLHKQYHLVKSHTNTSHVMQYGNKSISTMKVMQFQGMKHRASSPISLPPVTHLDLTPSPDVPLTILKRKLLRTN
Procedure: Legumain activation. To activate legumain, 5 μL of prolegumain solution (0.5 mg/mL in Tris buffer containing 10% glycerol) was mixed with 20 μL of activation buffer (50 mM Sodium Acetate, 100 mM NaCl, pH 4.0) and incubated at 37° C. for 2 h. It was then diluted in 225 μL of legumain assay buffer (50 mM MES, 250 mM NaCl, pH 5) to give a final legumain concentration of 10 μg/mL and immediately used in the assay.
Legumain assay. In a typical assay, peptide 1 was first dissolved in ultrapure water containing 25% DMSO at a peptide concentration of 10 mg/mL. It was then diluted in phosphate-buffered saline (PBS, pH 7.4, 10 mM) to give a peptide concentration of 2 mg/mL. Next, 50 μL of the peptide solution was mixed with 50 μL of MES buffer (50 mM MES, 250 mM NaCl, pH 5) containing activated legumain at different concentrations (0-2000 ng/mL) in a 96 well plate and the plate was incubated at 37° C. for 2 h. Note that the final peptide concentration was 1 mg/mL and final legumain concentrations were between 0 and 1000 ng/mL. Finally, 10 μL of ThT solution (1 mM, in ultrapure water) was added to each well, and ThT fluorescence was measured using a Spark 20M microplate reader (Tecan) after 15-30 min incubation at room temperature.
In the peptide concentration experiment, appropriate amounts of peptide 1 stock solution (10 mg/mL) were diluted in PBS and mixed with the MES buffer containing legumain, as described above, to give the final peptide concentrations between 0.05 and 1 mg/mL in the assay. In kinetic studies, ThT solution was mixed with the peptide immediately before the addition of activated legumain, and the plate was incubated in a Spark 20M microplate reader (Tecan) at 37° C. for 3 hours, and ThT fluorescence was recorded every 4 minutes. For the inhibitor experiment, the legumain inhibitor, RR-11a, was first dissolved in DMSO (1 mM), and appropriate amounts of inhibitor were incubated with legumain for about 1.0 hour at room temperature in 96 well plates. Finally, the legumain solutions incubated with different amounts of inhibitor were mixed with the peptide 1 solution, and the assay was performed as described above. For the experiments in plasma, 10 μL or 20 μL of PBS in the wells were replaced with human plasma to achieve final plasma concentrations of 10% and 20%, respectively.

[2] = target: T1, legumain; experiment: LC-MS analysis of hydrolysis of peptide 1 by legumain; format: biochemical; details: peptide about 0.5 mg/mL, legumain about 1000 ng/mL, 37° C., about 2 hours
Procedure: Fluorescence spectroscopy. For fluorescence measurements, peptide 2 was dissolved in DMSO to give a peptide concentration of 10 mg/mL, and it was 5× diluted in DMSO or the assay buffer and fluorescence spectra of the Fmoc groups were recorded using an FP-8500 spectrofluorometer (JASCO, Inc). Liquid chromatography mass spectrometry (LC-MS) measurements. LC-MS measurements were carried using an Acquity UPLC System (Waters) equipped with a SQ Detector 2 (Waters) and a C18 column (Waters). For LC-MS measurement, peptide 1 was first dissolved in ultrapure water containing 25% DMSO and diluted in PBS and MES mixture with or without legumain as described above. Final peptide concentration was about 0.5 mg/mL and legumain concentrations were about 0 ng/mL and about 1000 ng/mL. Samples were incubated at 37° C. for about 2 hours, diluted in HPLC grade water and acetonitrile mixture (1:1) containing 1% formic acid, and loaded to the column.

C[C@H](NC(=O)[C@H](C)NC(=O)[C@H](CCC(=O)O)NC(=O)[C@H](Cc1ccccc1)NC(=O)[C@H](CCCCN)NC(=O)[C@H](Cc1ccccc1)NC(=O)OCC1c2ccccc2-c2ccccc21)C(=O)N[C@@H](CC(N)=O)C(=O)NCC(=O)N[C@@H](CCC(=O)O)C(=O)N[C@@H](CCC(=O)O)C(=O)NCC(=O)N[C@@H](CO)C(=O)NCC(=O)N[C@@H](CCC(=O)O)C(=O)N[C@@H](CCC(=O)O)C(=O)O [peptide 1] (Fmoc-FKFEAANGEEGSGEE-OH; C-terminus assumed) was tested, and the “fluorescence intensity at 24 hours compared with the intensity at two hours” value ([1]; 1000 ng/mL legumain) was “about 2.5”, the “enhancement in the ThT emission intensity” value ([1]; 1000 ng/mL legumain, about two hours, peptide 1 1 mg/mL, ThT 90 μM) was “about 32 fold” and the “enhancement in ThT emission” value ([1]; 1 mg/mL peptide concentration, legumain 500 ng/mL) was 28 fold. The fluorescence enhancement ([1]; legumain 10.0 ng/mL, about two hours, ThT 90 μM) was “about 1.3 fold”, the fluorescence enhancement ([1]; legumain 25.0 ng/mL, about two hours, ThT 90 μM) was “about 3 fold” and the “limit of detection (LOD)” value ([1]; legumain, buffer) was “about 12 ng/mL and 0.21 nM”. For the same molecule, the “limit of quantification (LOQ)” value ([1]; legumain, buffer) was “about 25 ng/mL and 0.45 nM”, the “enhancement in the ThT fluorescence in the absence of legumain” value ([1]; no legumain, up to the highest peptide concentration (1.0 mg/mL)) was “no significant enhancement” and the “enhancement in the ThT emission” value ([1]; peptide 1 1.0 mg/mL, ThT 90 μM, no legumain) was 1.4 fold. For the same molecule, the “ThT emission intensity increase” value ([1]; peptide concentration below 0.25 mg/mL, legumain 500 ng/mL) was 1.3-1.4 fold and the “peptide cleaved by legumain (LC-MS)” value [2] was ~30%.
